Blank lines part the entries; values can stand above or below the compound they belong to. Where a SMILES comes first, the peptide text is derived from it. [ ]: non-standard residue; d: D form. The star is where a group is joined. Orn(α-tetramethylguanidino) = CN(C)C(=N[C@@H](CCCN)C(=O)*)N(C)C; Pro(trans-4-F) = O=C(O)[C@@H]1C[C@@H](F)CN1
How the values were obtained:
[1] = biological target: 70S ribosome isolated from E. coli BW25113 (E. coli (endogenous in E. coli BW25113)); test: fluorescence polarisation; direct titration: 2-fold dilution series (22 steps) of crude 70S ribosome extract, cf-labeled peptide (10 uL, 40 nmol/L) added; ribosome preparation buffer (20 mmol/L HEPES-KOH, 6 mmol/L MgCl2, 30 mmol/L NH4Cl, pH 7.6); 28 +/- 1 C, 90 min
[2] = biological target: 70S ribosome isolated from E. coli BW25113 (E. coli (endogenous in E. coli BW25113)); test: fluorescence polarisation; competition: 2-fold dilution series (21 steps) of unlabeled peptide (20 uL, 300 umol/L) pre-incubated 90 min with crude 70S ribosome extract (at ~90% of the upper Kd plateau), then cf-Api137 (10 uL, 80 nmol/L) for 90 min; ribosome preparation buffer, 28 +/- 1 C; Ki calculated from IC50
[3] = biological target: 70S ribosomes isolated from E. coli BW25113 (Escherichia coli, UniProt P60723+P61175); test: Fluorescence polarization, competition with cf-Api137 for 70S ribosome binding (Ki); details: ratio of Ki to the Ki of Api137
Description: E. coli BW25113 were cultivated in LB medium and harvested by centrifugation (5000× g, 15 min, 4 °C) at an OD600 of 3–4. Cell pellets were washed in ribosome preparation buffer (20 mmol/L HEPES-KOH, 6 mmol/L MgCl2, 30 mmol/L NH4Cl, pH 7.6, 4 °C), centrifuged (4100× g, 30 min, 4 °C), and resuspended in ribosome preparation buffer (0.5 g/L) containing freshly added 2-mercaptoethanol (4 mmol/L) and lysozyme. Cells were incubated on ice for 30 min and disrupted in six cycles using a FastPrep-24^TM 5G instrument (MP Biomedicals, Eschwege, Germany) with the BigPrep 50 mL setting (40 s, 4.0 m/s), interrupted by one minute of incubation on ice between the cycles. After a centrifugation step (1620× g, 5 min, 4 °C), DNase I (5 U/mL) was added to the supernatant and incubated for 1 h on ice. Cell debris was removed by centrifugation at 16,000× g (30 min, 4 °C) and twice at 32,000× g (60 min, 4 °C). Crude ribosomes were obtained by centrifugation at 165,000× g (17 h, 4 °C). […]
Inhibition constants (Ki) were measured for the 70S ribosome extract using cf-labeled and unlabeled peptides in ribosome preparation buffer. […] Fluorescence polarization was determined on a PARADIGM^TM microplate reader in the top reading position (λex = 485 nm, λem = 535 nm). […] Ki values were calculated as described by Mathias and Jung.

[4] = tested on: 50S subunit assembly / 70S ribosome in E. coli RN31; test: Ribosome profile analysis (RPA), sucrose gradient of E. coli RN31 lysate; assay type: cell-based, Escherichia coli; details: E. coli RN31, 33% TSB, peptide 8 µg/mL, 90 min, 5–25% sucrose gradient; n = 2 (Api137 n = 7)
Description: E. coli RN31 was grown in 33% TSB (37 °C, 200 rpm) from a starting OD600 of 0.05 to an OD600 of 0.2, measured on a NanoPhotometer® (NP80; Implen; Westlake Village, CA, USA), and divided into subcultures that were inoculated with a peptide ([…]) before being cultured for 90 min (37 °C, 200 rpm). The following steps were performed on ice. Cells were harvested by centrifugation (4000× g, 4 °C, 25 min), washed with TICO buffer (20 mmol/L Hepes-KOH, pH 7.6, 6 mmol/L MgAc2, 30 mmol/L KAc), centrifuged (4000× g, 25 min, 4 °C), and stored at −80 °C. The cell pellet was suspended in TICO buffer (500 µL) and mixed with silica beads (zirconium glass pellets, 100 µm diameter; Carl Roth; Karlsruhe, Germany) to lyse the cells on a FastPrep-24^TM 5G (MP Biomedicals, Solon, OH, USA) using three disruption cycles (30 s, 6.0 m/s) interrupted by 1 min of incubation on ice after each cycle. Cell debris was removed by centrifugation (5000× g, 4 °C, 5 min), the supernatant was transferred to a new reaction tube, centrifuged (20,000× g, 4 °C, 20 min), the absorbance was recorded at 260 nm on a NanoPhotometer® NP80, and the sample was stored at −80 °C.
A 5% (w/v) sucrose solution (6.5 mL) in TICO buffer containing 2-mercaptoethanol (4 mmol/L) was poured into an open-top centrifuge tube (13.2 mL, 14 × 89 mm, Beckman Coulter) and bottomed with a 25% (w/v) sucrose solution (6.5 mL) in TICO buffer containing 2-mercaptoethanol (4 mmol/L) using a cannula. The tube was sealed with parafilm and placed horizontally at 4 °C for 3 h and vertically at 4 °C for 30 min. A portion of the upper layer (550 µL) was replaced by lysate (500 µL, A260 = 30) and centrifuged using a swing-out rotor (SW 41 Ti, 52,500× g, 4 °C, 19 h) without a brake. The contents were transferred from bottom-up to obtain equal volumes in all wells of a black 96-well plate with a flat bottom (96 Well PP black Greiner Bio-One GmbH, Frickenhausen, Germany) using the Äkta Purifier 10 system, and absorbance was recorded at a wavelength of 254 nm. Fluorescence was measured in the plate using the PARADIGM at excitation (λex) and emission (λem) wavelengths of 485 nm and 535 nm for eGFP and 585 nm and 635 nm, respectively, for mCherry and normalized to the 70S ribosome peak (set to 100%).

[5] = tested on: in vitro expression of sfGFP in the presence of RF1; test: In vitro transcription-translation (iTT) assay of sfGFP in the presence of RF1; assay type: biochemical; details: peptide 5 µmol/L, RF1, 37 °C, 2 h, fluorescence; normalized to absence of PrAMPs; n = 3
Description: The sfGFP expression analysis relied on the NEB PureExpress Delta RF123 Kit (New England Biolabs, Frankfurt, Germany). The DNA template encoding sfGFP with a UAG stop codon was amplified from the pY71sfGFP vector by PCR using the primers sfGFP fwd ([…]) and sfGFP rev ([…]). The release factor RF1 of the kit was diluted 50-fold (v/v) in 1× Pure System Buffer (PSB, 1 mol/L magnesium acetate, 0.5 mol/L K3PO4 (pH 7.3), 1 mol/L potassium glutamate, 1 mol/L NH4Cl, 0.5 mol/L CaCl2, 1 mol/L spermidine, 0.1 mol/L putrescine, 0.1 mol/L DTT). sfGFP expression was performed in a freshly prepared mixture of kit solution A (2 µL), kit solution B (1.5 µL), 50-fold diluted RF1 (0.5 µL), sfGFP template (0.1325 pmol, 35 ng) or water as control (0.25 µL), PSB (0.25 µL), and a PrAMP (50 or 0 µmol/L) dissolved in water (0.5 µL). The reaction mixture was transferred to a black 384-well plate (flat bottom, PS, 784900, Greiner Bio-One GmbH), covered with a lid, and incubated (37 °C, 2 h) in a microplate reader (Gemini EM, Molecular Devices, San Jose, CA, USA). Fluorescence was recorded every 10 min (λex = 485 nm, λem = 535 nm).

E. coli RN31 = test: Growth inhibition of E. coli RN31 during 90 min exponential growth phase; assay type: cell-based, Escherichia coli; details: E. coli RN31, 33% TSB, peptide 8 µg/mL, 90 min, OD600; two biological replicates (n = 2)
Description: The following steps were performed on ice. Cells were harvested by centrifugation (4000× g, 4 °C, 25 min), washed with TICO buffer (20 mmol/L Hepes-KOH, pH 7.6, 6 mmol/L MgAc2, 30 mmol/L KAc), centrifuged (4000× g, 25 min, 4 °C), and stored at −80 °C. The cell pellet was suspended in TICO buffer (500 µL) and mixed with silica beads (zirconium glass pellets, 100 µm diameter; Carl Roth; Karlsruhe, Germany) to lyse the cells on a FastPrep-24^TM 5G (MP Biomedicals, Solon, OH, USA) using three disruption cycles (30 s, 6.0 m/s) interrupted by 1 min of incubation on ice after each cycle. Cell debris was removed by centrifugation (5000× g, 4 °C, 5 min), the supernatant was transferred to a new reaction tube, centrifuged (20,000× g, 4 °C, 20 min), the absorbance was recorded at 260 nm on a NanoPhotometer® NP80, and the sample was stored at −80 °C. […]

Kd [1]: 244 nM
Compound: 5(6)-carboxyfluorescein-labeled Api137 (peptide)

Ki [2]: 2.6 nM
Compound: Api137 (peptide)

Compound: CC[C@H](C)[C@H](NC(=O)[C@H](Cc1ccc(O)cc1)NC(=O)[C@@H](NC(=O)[C@@H]1CCCN1C(=O)[C@H](CCCNC(=N)N)NC(=O)[C@H](CC(N)=O)NC(=O)[C@H](CC(N)=O)NC(=O)[C@H](CCCN)N=C(N(C)C)N(C)C)C(C)C)C(=O)N1CCC[C@H]1C(=O)N[C@@H](CCCNC(=N)N)C(=O)N1CCC[C@H]1C(=O)N[C@@H](CCCNC(=N)N)C(=O)N1C[C@H](F)C[C@H]1C(=O)N1CCC[C@H]1C(=O)N[C@@H](Cc1c[nH]cn1)C(=O)N1CCC[C@H]1C(=O)N[C@@H](CCCNC(=N)N)C(=O)N[C@@H](CC(C)C)C(=O)O [Api844] ({Orn(α-tetramethylguanidino)}-NNRPVYIPRPR[Pro(trans-4-F)]PHPRL-OH)
fold higher Ki than Api137 [3]: 8 fold | RPA [pre-50S formation] [4]: yes | Residual iTT (sfGFP expression relative to no PrAMP) [5]: 28 ± 1.2% | reduction of bacterial growth vs untreated control (E. coli RN31): 70%

From paper PMC12189828, “Substitution of Proline Residues by 4-Fluoro-L-Proline Affects the Mechanism of the Proline-Rich Antimicrobial Peptide Api137” (Antibiotics, 2025)
